Converted amounts (≈) assume the structure as drawn. Like-named read-outs stand apart in the source and are kept apart here.
What was measured:
Format in all cases: physicochemical
[1] = Stability of Cmpd 2 in formulations, percent remaining by LC
Experimental: FIG. 1. See Examples. Samples were stored at 25° C. Axes: x-axis (time, months); y-axis (stability of Cmpd 2 as measured by percent remaining by liquid chromatography, LC). Legend: macrogol 15 hydroxystearate (box); polysorbate 80 (diamond).
See Examples. […] Axes: x-axis (time, months); y-axis (stability of Cmpd 2 as measured by percent remaining by liquid chromatography, LC). Legend Formulation PSI, storage 40° C./20% RH, % remaining by LC (Diamond); Formulation Sol1, storage 40° C./20% RH, % remaining by LC (Square); Formulation PSI, storage 25° C./40% RH, % remaining by LC (Triangle); Formulation Sol1, storage 25° C./40% RH, % remaining by LC (cross); Formulation PSI, storage 5° C., % remaining by LC (Asterix); Formulation Sol1, storage 5° C., % remaining by LC (circle).
Axes: x-axis (time, months); y-axis (stability of Cmpd 2 as measured by percent remaining by liquid chromatography, LC). Legend Formulation #2, storage 5°, % remaining by LC (Diamond); Formulation #2, storage 25° C./40% RH, % remaining by LC (Square); Formulation #2, storage 30° C./60% RH, % remaining by LC (Triangle); Formulation #5, storage 5° C., % remaining by LC (cross); Formulation #5, storage 25° C./40% RH, % remaining by LC (Asterix); Formulation #5, storage 30° C./60% RH, % remaining by LC (circle).

[2] = Solubility in formulation vehicles with different solubilizers; conditions: for Solubility in vehicle containing Solutol 15 HS compared to polyoxyethylated surfactants: comparison in words; for solubility at 8 weeks: read-out: Solubility (mg/ml) measured after 8 weeks
From the text: Table 1 summarizes solubility of Cmpd 1 in vehicles with 4 different solubilizers over a range of temperatures.

[3] = Stability of Cmpd 1 in formulations, impurities by percent area LC; conditions: macrogol 15 hydroxystearate vs PS80 formulation of Table 3; 25° C. and 40° C. storage; FIGS. 2A-D
Experimental: FIGS. 2A-D: Stability results for Cmpd 1 in formulations containing either polysorbate 80 (PS80) or macrogol 15 hydroxystearate (Sol-2) as solubilizer as shown in Table 3. See Examples. […] Impurity amounts were calculated by percent area by liquid chromatography (LC). FIG. 2A: 25° C. storage, total impurities. FIG. 2B: 25° C. storage, major degradation product. FIG. 2C: 40° C. storage, total impurities. FIG. 2D: 40° C. storage, major degradation product. Legend: as in FIG. 1.

[4] = Cmpd 4 solubility in Solutol HS 15 vehicles

SMILES: CCCCC[C@H](O)c1ccc(N2C(=O)CC[C@@H]2CCCc2ccc(C(=O)OC(C)C)s2)cc1 [Cmpd 2, isopropyl 5-(3-((S)-1-(4-((S)-1-hydroxyhexyl)phenyl)-5-oxopyrrolidin-2-yl)propyl)thiophene-2-carboxylate]
- Degradation (percent remaining by LC) ([1]; macrogol 15 hydroxystearate (#2) vs PS80 (#5) formulation of Table 8, 5° C., 25° C./40% RH, 30° C./60% RH, FIG. 4): prevent degradation seen in PS80 containing formulations at all storage conditions
- Degradation (percent remaining by LC) ([1]; macrogol 15 hydroxystearate vs PS80 formulation of Table 7, 40° C./20% RH storage, FIG. 3): prevent degradation seen in PS80 containing formulations
- Solubility in vehicle containing Solutol 15 HS compared to polyoxyethylated surfactants [2]: comparable or better solubility

SMILES: CCCCC[C@H](O)c1ccc(N2C(=O)CC[C@@H]2COCc2ccc(C(=O)OC(C)C)s2)cc1 [Cmpd 1, isopropyl 5-((((R)-1-(4-((S)-1-hydroxyhexyl)phenyl)-5-oxopyrrolidin-2-yl)methoxy)methyl)thiophene-2-carboxylate]
- Oxidative degradation (total impurities, major degradation product) [3]: prevent oxidative degradation seen in PS80 containing formulations
- Solubility in vehicle containing Solutol 15 HS compared to polyoxyethylated surfactants [2]: higher than that containing POE40 stearate or polysorbate 20, but slightly lower than that containing Polysorbate 80
- solubility at 8 weeks ([2]; formulation vehicle with 1% POE 40 Stearate, aqueous with cosolvent or surfactant or cyclodextrin, vehicle with 1% POE 40 Stearate, 5 °C): 1.27 mg/mL (≈ 2680 µM)
- solubility at 8 weeks ([2]; formulation vehicle with 1% POE 40 Stearate, aqueous with cosolvent or surfactant or cyclodextrin, vehicle with 1% POE 40 Stearate, 25 °C): 1.21 mg/mL (≈ 2560 µM)
- solubility at 8 weeks ([2]; formulation vehicle with 1% POE 40 Stearate, aqueous with cosolvent or surfactant or cyclodextrin, vehicle with 1% POE 40 Stearate, 40 °C): 1.15 mg/mL (≈ 2430 µM)
- solubility at 8 weeks ([2]; formulation vehicle with 1% Polysorbate 20, aqueous with cosolvent or surfactant or cyclodextrin, vehicle with 1% Polysorbate 20, 5 °C): 1.24 mg/mL (≈ 2620 µM)
- solubility at 8 weeks ([2]; formulation vehicle with 1% Polysorbate 20, aqueous with cosolvent or surfactant or cyclodextrin, vehicle with 1% Polysorbate 20, 25 °C): 1.18 mg/mL (≈ 2490 µM)
- solubility at 8 weeks ([2]; formulation vehicle with 1% Polysorbate 20, aqueous with cosolvent or surfactant or cyclodextrin, vehicle with 1% Polysorbate 20, 40 °C): 1.05 mg/mL (≈ 2220 µM)
- solubility at 8 weeks ([2]; formulation vehicle with 1% Polysorbate 80, aqueous with cosolvent or surfactant or cyclodextrin, vehicle with 1% Polysorbate 80, 5 °C): 1.68 mg/mL (≈ 3540 µM)
- solubility at 8 weeks ([2]; formulation vehicle with 1% Polysorbate 80, aqueous with cosolvent or surfactant or cyclodextrin, vehicle with 1% Polysorbate 80, 25 °C): 1.52 mg/mL (≈ 3220 µM)
- solubility at 8 weeks ([2]; formulation vehicle with 1% Polysorbate 80, aqueous with cosolvent or surfactant or cyclodextrin, vehicle with 1% Polysorbate 80, 40 °C): 1.46 mg/mL (≈ 3080 µM)
- solubility at 8 weeks ([2]; formulation vehicle with 1% Solutol HS 15, aqueous with cosolvent or surfactant or cyclodextrin, vehicle with 1% Solutol HS 15, 5 °C): 1.5 mg/mL (≈ 3170 µM)
- solubility at 8 weeks ([2]; formulation vehicle with 1% Solutol HS 15, aqueous with cosolvent or surfactant or cyclodextrin, vehicle with 1% Solutol HS 15, 25 °C): 1.32 mg/mL (≈ 2790 µM)
- solubility at 8 weeks ([2]; formulation vehicle with 1% Solutol HS 15, aqueous with cosolvent or surfactant or cyclodextrin, vehicle with 1% Solutol HS 15, 40 °C): 1.24 mg/mL (≈ 2610 µM)

SMILES: Cc1c(COC(=O)C(C)(C)C)cccc1[C@H](C)c1c[nH]cn1 [Cmpd 4, 3-[(1S)-1-(1H-imidazol-4-yl)ethyl]-2-methylbenzyl pivalate]
- Cmpd 4 Solubility (% w/w) <mixing overnights (>24 hr) at ambient room temperature> ([4]; 0.1% Solutol HS 15, adjusted to pH 5.5, final pH 5.9 post-filtration): 0.07 % w/w
- Cmpd 4 Solubility (% w/w) <mixing overnights (>24 hr) at ambient room temperature> ([4]; 0.1% Solutol HS 15, adjusted to pH 6.5, final pH 6.7 post-filtration): 0.02 % w/w
- Cmpd 4 Solubility (% w/w) <mixing overnights (>24 hr) at ambient room temperature> ([4]; 0.5% Solutol HS 15, adjusted to pH 5.5, final pH 6.1 post-filtration): 0.11 % w/w
- Cmpd 4 Solubility (% w/w) <mixing overnights (>24 hr) at ambient room temperature> ([4]; 0.5% Solutol HS 15, adjusted to pH 6.5, final pH 6.8 post-filtration): 0.06 % w/w
- Cmpd 4 Solubility (% w/w) <mixing overnights (>24 hr) at ambient room temperature> ([4]; 1.0% Solutol HS 15, adjusted to pH 5.5, final pH 6.1 post-filtration): 0.16 % w/w
- Cmpd 4 Solubility (% w/w) <mixing overnights (>24 hr) at ambient room temperature> ([4]; 1.0% Solutol HS 15, adjusted to pH 6.5, final pH 6.8 post-filtration): 0.10 % w/w

From patent US20230241030A1, “MACROGOL 15 HYDROXYSTEARATE FORMULATIONS” (Allergan, Inc., priority 2011, published 2023)
